The source of these data is US8629147B2, “Heterocyclic compounds useful in the treatment of neoplastic diseases, inflammatory disorders and immunomodulatory disorders” (ChemBridge Corporation, priority 2005, dated 2014).

Assay [1] concerns the target T1, human IGF1R kinase domain (Homo sapiens, UniProt P08069).
T1 construct: human IGF1R precursor protein corresponding to the amino acids positions 974 through 1293; 6xHis; made in house; host or cells: SF9 insect cells, recombinant baculovirus (Bac-to-Bac System)
Briefly: IGF1R tyrosine phosphorylation inhibition, Alphascreen phosphotyrosine PT66 assay. Particulars: recombinant kinase domain, 1 hour co-incubation, 20 to 0.1 μM. It is filed as biochemical. The procedure: Inhibition of IGF1R tyrosine phosphorylation was measured in the Alphascreen phosphotyrosine PT66 assay kit (Perkin Elmer Life sciences, Catalog number 6760602) according to the manufacturer's instructions. As a source of enzymatically active IGF1r kinase for this assay, SF9 insect cells were infected with recombinant baculovirus (Bac-to-Bac System, Invitrogen, Carlsbad, Calif.) encoding 6×His-tagged kinase domain portion of human IGF1R precursor protein corresponding to the amino acids positions 974 through 1293 (Abbott et al., 1992, J. Biol. Chem. 267:10759-10763) and recombinant kinase protein was purified to homogeneity using two-step chromatography on immobilized Ni^2+ resin (Ni-NTA) and ion-exchange Q-Sepharose column. Biotinylated poly glu-tyr 4:1 (CIS bio-international, catalog number 61GT0BLA) was used for the kinase substrate. Compounds were serially diluted to give a concentration range from 20 to 0.1 μM and co-incubated with IGF1r kinase, biotinylated peptide substrate and alphascreen components for 1 hour and then read in a Perkin-Elmer alphafusion plate reader. A plot of counts per minute versus log concentration of compounds was fitted to a sigmoidal dose response curve using Graphpad Prism software to generate IC50 values (see FIG. 1 for an example).

Assay [2] has as its system MCF7 human breast tumor cells. Briefly: CellTiter-Glo luminescent cell viability assay, MCF7. It is filed as cell-based. Particulars: 48 hours, 20 to 0.1 μM. The protocol: (§1) Cell viability of either MCF7 human breast tumor cells (American Type Culture Collection catalog #HTB 22) or NCI-H929 human plasmacytoma cells (ATCC catalog #CRL-9068) was assessed using the Promega CellTiter-Glo luminescent cell viability assay according to manufacturer's instructions. In brief, cells were plated at 10,000 cells per well in a clear bottom white 96 well microtiter plate (Costar catalog #3604) in 100 μL of cell growth medium. Compounds were then added to the cells to give final concentrations of compound ranging from 20 to 0.1 μM. Cells were incubated 48 hours after which 100 μL per well of celltiter-glo reagent was added and luminescence was measured in a BMG polarstar plate luminometer. A plot of counts per minute versus log concentration of compounds was fitted to a sigmoidal dose response curve using Graphpad Prism software to generate IC50 values.

Assay [3] deals with NCI-H929 human plasmacytoma cells. Kind of assay: CellTiter-Glo luminescent cell viability assay, NCI-H929. It is filed as cell-based. Particulars: 48 hours, 20 to 0.1 μM. The procedure:
as §1
(In general: Cellular ATP, detected with luciferase, serves as a proxy for viable cell number.)

T1 sequence (P08069 974-1293): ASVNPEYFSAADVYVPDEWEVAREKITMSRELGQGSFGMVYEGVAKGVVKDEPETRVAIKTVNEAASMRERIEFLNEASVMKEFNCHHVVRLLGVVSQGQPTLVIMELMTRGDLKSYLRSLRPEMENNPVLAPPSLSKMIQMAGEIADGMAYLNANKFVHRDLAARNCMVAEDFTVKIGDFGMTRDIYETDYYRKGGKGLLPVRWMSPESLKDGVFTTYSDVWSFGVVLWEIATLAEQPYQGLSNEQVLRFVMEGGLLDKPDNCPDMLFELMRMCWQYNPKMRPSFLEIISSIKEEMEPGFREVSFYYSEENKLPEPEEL

Broadly, the IC50 is the point on the concentration scale where inhibition reaches its midpoint. In the case of `CC1CCN(CCc2ccc(NC(=O)c3cn(-c4cccc(-c5ccc(N(C)C)cc5)n4)nc3N)cc2)CC1`, the concentration for half-maximal inhibition (IC50) in assay [1] is at most 5 µM; in assay [2], 5 to 10 µM; in assay [3] it was 5 to 10 µM.

On to `CN1CCN(Cc2cccc(NC(=O)c3cc(N)n(-c4ncc5c(n4)-c4ccccc4CC5)n3)c2)CC1`, for which the concentration for half-maximal inhibition (IC50) in assay [1] was at most 5 µM; in assay [2], 10 to 15 µM; in assay [3], 10 to 15 µM.

Take `COc1ccc2c(c1)OCc1cnc(-n3cc(C(=O)NCCCc4ccncc4)c(N)n3)nc1-2`: the half-inhibitory concentration (IC50) in assay [1], in assay [2] and in assay [3] was 10 to 15 µM each time.

Consider `COc1ncccc1-c1ccc(O)c(-c2nc3ccc(C(=O)Nc4ccc(CCN5CCN(C)CC5)cc4)cc3[nH]2)c1`, for which the figures for the IC50 in assay [1], in assay [2] and in assay [3] were at most 5 µM, 5 to 10 µM and at most 5 µM, respectively.

Take `CN1CCN(c2ccc3nc(-c4cc(-c5ccccc5)ccc4O)[nH]c3c2)CC1`: the half-maximal inhibitory concentration (IC50) was at most 5 µM in assay [1], above 25 µM in assay [2] and 10 to 15 µM in assay [3].

Take `CN1CCN(c2ccc3nc(-c4cc(-c5cccnc5)ccc4O)[nH]c3c2)CC1`: the IC50 in assay [1] is at most 5 µM; in assay [2], 10 to 15 µM; in assay [3], 10 to 15 µM.

With `CN1CCN(c2ccc3nc(-c4ccc(OCc5ccccc5)cc4O)[nH]c3c2)CC1`, the IC50 was at most 5 µM in assay [1], 10 to 15 µM in assay [2] and above 25 µM in assay [3].

For the compound `CN1CCN(c2ccc3nc(-c4ccc(O)c(O)c4O)[nH]c3c2)CC1`, the IC50 was at most 5 µM in assay [1], 10 to 15 µM in assay [2] and 10 to 15 µM in assay [3].

Take `CCN1CCC2(CCN(c3cc(C)c4nc(-c5c(NC[C@@H](O)c6cccc(Cl)c6)cc[nH]c5=O)[nH]c4c3)C2)C1` (stereo partly drawn): the IC50 was at most 5 µM in assay [1], 5 to 10 µM in assay [2] and at most 5 µM in assay [3].

Turning to `Cc1cc(N2CCN(C)CC2)cc2nc(-c3nc4cc(N5CCN(C)CC5)cc(C)c4[nH]3)[nH]c12`, the IC50 in assay [1] was at most 5 µM; in assay [2], above 25 µM; in assay [3] it was 10 to 15 µM.

As for `CCN1CCC2(CCN(CCc3ccc(NC(=O)c4ccc5[nH]c(-c6cc(-c7cccnc7OC)ccc6O)nc5c4)cc3)C2)C1` (stereo not drawn), the figures for the IC50 in assay [1], in assay [2] and in assay [3] were at most 5 µM, 10 to 15 µM and at most 5 µM, respectively.

For `COc1ncccc1-c1ccc(O)c(-c2nc3ccc(C(=O)Nc4ccc(CCN5CCCC6(CCCN(C)C6)C5)cc4)cc3[nH]2)c1` (stereo not drawn), the results for the 50% inhibitory concentration (IC50) in assay [1], in assay [2] and in assay [3] were at most 5 µM, 5 to 10 µM and at most 5 µM, respectively.

In the case of `COc1ncccc1-c1ccc2[nH]c(-c3nc4cc(N5CCN(C)CC5)ccc4[nH]3)nc2c1`, the IC50 in assay [1] was at most 5 µM; in assay [2], 10 to 15 µM; in assay [3], at most 5 µM.

Turning to `COc1ncccc1-c1ccc2[nH]c(-c3nc4cc(C(=O)Nc5ccc(CCN6CCN(C)CC6)cc5)ccc4[nH]3)nc2c1`, the figures for the half-maximal inhibitory concentration (IC50) in assay [1], in assay [2] and in assay [3] were at most 5 µM, 10 to 15 µM and at most 5 µM, respectively.

As for `CCN1CCC2(CCN(CCc3ccc(NC(=O)c4ccc5[nH]c(-c6cc(-c7cccnc7O)ccc6O)nc5c4)cc3)C2)C1` (stereo not drawn) [drawing 1786], the concentration for half-maximal inhibition (IC50) was at most 5 µM in assay [1], 5 to 10 µM in assay [2] and at most 5 µM in assay [3].

For `CN1CCCC2(CCCN(CCc3ccc(NC(=O)c4ccc5nc(-c6cc(-c7cccnc7O)ccc6O)[nH]c5c4)cc3)C2)C1` (stereo not drawn) [drawing 1788], the values for the IC50 in assay [1], in assay [2] and in assay [3] were at most 5 µM, 10 to 15 µM and at most 5 µM, respectively.
